# Experimental data: ChEMBL document CHEMBL6078630, “Design, synthesis, and bioactivity investigation of novel cyclic lipopeptide antibiotics targeting top-priority multidrug-resistant gram-negative bacteria” (Eur J Med Chem, 2024)
# Bridge positions count the residues as written; N and C are the ends. Square brackets hold non-standard residues; d marks the D form. Peptide text beside a SMILES is read from it. * marks the point of attachment. Heptanoyl(6-Me) = CC(C)CCCCC(=O)*; dOrn = NCCC[C@@H](N)C(=O)O; dDab = NCC[C@@H](N)C(=O)O; Orn = NCCC[C@H](N)C(=O)O; Dab = NCC[C@H](N)C(=O)O; Dap = NC[C@H](N)C(=O)O
# How the values were obtained:
# Escherichia coli [1] = assay: Antibacterial activity against Escherichia coli ATCC BAA-2523 assessed as inhibition of bacterial growth incubated for 16 to 20 hrs by CLSI protocol based broth microdilution method; assay type: functional; details: time 16-20 hrs
# Escherichia coli [2] = assay: Antibacterial activity against carbapenem-resistant Escherichia coli ATCC BAA-2340 assessed as inhibition of bacterial growth incubated for 16 to 20 hrs by CLSI protocol based broth microdilution method; assay type: functional; details: time 16-20 hrs
# Klebsiella pneumoniae [3] = assay: Antibacterial activity against carbapenem-resistant Klebsiella pneumoniae clinical isolate KPN+19-15 assessed as inhibition of bacterial growth incubated for 16 to 20 hrs by CLSI protocol based broth microdilution method; assay type: functional; details: time 16-20 hrs
# Klebsiella pneumoniae [4] = assay: Antibacterial activity against carbapenem-resistant Klebsiella pneumoniae ATCC BAA-1705 assessed as inhibition of bacterial growth incubated for 16 to 20 hrs by CLSI protocol based broth microdilution method; assay type: functional; details: time 16-20 hrs
# Pseudomonas aeruginosa [5] = assay: Antibacterial activity against carbapenem-resistant Pseudomonas aeruginosa clinical isolate 19-3 assessed as inhibition of bacterial growth incubated for 16 to 20 hrs by CLSI protocol based broth microdilution method; assay type: functional; details: time 16-20 hrs
# Pseudomonas aeruginosa [6] = assay: Antibacterial activity against Pseudomonas aeruginosa ATCC 27853 assessed as inhibition of bacterial growth incubated for 16 to 20 hrs by CLSI protocol based broth microdilution method; assay type: functional; details: time 16-20 hrs
# Acinetobacter baumannii [7] = assay: Antibacterial activity against carbapenem-sensitive Acinetobacter baumannii clinical isolate 19-1 assessed as inhibition of bacterial growth incubated for 16 to 20 hrs by CLSI protocol based broth microdilution method; assay type: functional; details: time 16-20 hrs
# Acinetobacter baumannii [8] = assay: Antibacterial activity against Acinetobacter baumannii NCTC 13304 (OXA-27) assessed as inhibition of bacterial growth incubated for 16 to 20 hrs by CLSI protocol based broth microdilution method; assay type: functional; details: time 16-20 hrs
# [9] = Renal cytotoxicity against HK-2 cells incubated for 72 hrs by CCK8 assay; assay type: toxicity, cell-based; details: human
compound,measurement,setting,value
CC(C)CCCCC(=O)N[C@@H](CCN)C(=O)N[C@H](C(=O)N[C@H](CCN)C(=O)N[C@H]1CCNC(=O)[C@H]([C@@H](C)O)NC(=O)[C@H](CCN)NC(=O)[C@H](CCN)NC(=O)[C@H]([C@@H](C)O)NC(=O)[C@@H](Cc2ccccc2)NC(=O)[C@H](CCN)NC1=O)[C@@H](C)O ({Heptanoyl(6-Me)}-[Dab]T[dDab][Dab][Dab][dF]T[Dab][Dab]T; lactam 4-C),MIC,Escherichia coli [1],≤ 0.03 µg/mL
same,MIC,Escherichia coli [2],≤ 0.03 µg/mL
same,MIC,Klebsiella pneumoniae [3],≤ 0.03 µg/mL
same,MIC,Klebsiella pneumoniae [4],0.125 µg/mL
same,MIC,Pseudomonas aeruginosa [5],0.5 µg/mL
same,MIC,Pseudomonas aeruginosa [6],0.5 µg/mL
same,MIC,Acinetobacter baumannii [7],0.06 µg/mL
same,MIC,Acinetobacter baumannii [8],≤ 0.03 µg/mL
same,IC50 at 72 h,[9],> 500 µg/mL
CC(C)CCCCC(=O)N[C@@H](CCN)C(=O)N[C@H](C(=O)N[C@H](CCCN)C(=O)N[C@H]1CCNC(=O)[C@H]([C@@H](C)O)NC(=O)[C@H](CCN)NC(=O)[C@H](CCN)NC(=O)[C@H]([C@@H](C)O)NC(=O)[C@@H](Cc2ccccc2)NC(=O)[C@H](CCN)NC1=O)[C@@H](C)O ({Heptanoyl(6-Me)}-[Dab]T[dOrn][Dab][Dab][dF]T[Dab][Dab]T; lactam 4-C),MIC,Escherichia coli [1],≤ 0.03 µg/mL
same,MIC,Escherichia coli [2],≤ 0.03 µg/mL
same,MIC,Klebsiella pneumoniae [3],0.125 µg/mL
same,MIC,Klebsiella pneumoniae [4],0.06 µg/mL
same,MIC,Pseudomonas aeruginosa [5],1 µg/mL
same,MIC,Pseudomonas aeruginosa [6],0.25 µg/mL
same,MIC,Acinetobacter baumannii [7],0.125 µg/mL
same,MIC,Acinetobacter baumannii [8],0.06 µg/mL
same,IC50 at 72 h,[9],> 500 µg/mL
CC(C)CCCCC(=O)N[C@@H](CCN)C(=O)N[C@H](C(=O)N[C@H](CO)C(=O)N[C@H]1CCNC(=O)[C@H]([C@@H](C)O)NC(=O)[C@H](CN)NC(=O)[C@H](CCN)NC(=O)[C@H]([C@@H](C)O)NC(=O)[C@@H](Cc2ccccc2)NC(=O)[C@H](CCN)NC1=O)[C@@H](C)O ({Heptanoyl(6-Me)}-[Dab]T[dS][Dab][Dab][dF]T[Dab][Dap]T; lactam 4-C),MIC,Escherichia coli [1],≤ 0.03 µg/mL
same,MIC,Escherichia coli [2],≤ 0.03 µg/mL
same,MIC,Klebsiella pneumoniae [3],≤ 0.03 µg/mL
same,MIC,Klebsiella pneumoniae [4],0.06 µg/mL
same,MIC,Pseudomonas aeruginosa [5],8 µg/mL
same,MIC,Pseudomonas aeruginosa [6],8 µg/mL
same,MIC,Acinetobacter baumannii [7],0.06 µg/mL
same,MIC,Acinetobacter baumannii [8],≤ 0.03 µg/mL
same,IC50 at 72 h,[9],> 500 µg/mL
CC(C)CCCCC(=O)N[C@@H](CCN)C(=O)N[C@H](C(=O)N[C@H](CO)C(=O)N[C@H]1CCNC(=O)[C@H]([C@@H](C)O)NC(=O)[C@H](CCCN)NC(=O)[C@H](CCN)NC(=O)[C@H]([C@@H](C)O)NC(=O)[C@@H](Cc2ccccc2)NC(=O)[C@H](CCN)NC1=O)[C@@H](C)O ({Heptanoyl(6-Me)}-[Dab]T[dS][Dab][Dab][dF]T[Dab][Orn]T; lactam 4-C),MIC,Escherichia coli [1],0.25 µg/mL
same,MIC,Escherichia coli [2],0.25 µg/mL
same,MIC,Klebsiella pneumoniae [3],0.5 µg/mL
same,MIC,Klebsiella pneumoniae [4],1 µg/mL
same,MIC,Pseudomonas aeruginosa [5],> 64 µg/mL
same,MIC,Pseudomonas aeruginosa [6],> 64 µg/mL
same,MIC,Acinetobacter baumannii [7],8 µg/mL
same,MIC,Acinetobacter baumannii [8],8 µg/mL
same,IC50 at 72 h,[9],> 500 µg/mL
CC(C)CCCCC(=O)N[C@@H](CCN)C(=O)N[C@H](C(=O)N[C@H](CO)C(=O)N[C@H]1CCNC(=O)[C@H]([C@@H](C)O)NC(=O)[C@H](CCN)NC(=O)[C@H](CCCN)NC(=O)[C@H]([C@@H](C)O)NC(=O)[C@@H](Cc2ccccc2)NC(=O)[C@H](CCN)NC1=O)[C@@H](C)O ({Heptanoyl(6-Me)}-[Dab]T[dS][Dab][Dab][dF]T[Orn][Dab]T; lactam 4-C),MIC,Escherichia coli [1],0.125 µg/mL
same,MIC,Escherichia coli [2],0.06 µg/mL
same,MIC,Klebsiella pneumoniae [3],0.125 µg/mL
same,MIC,Klebsiella pneumoniae [4],0.25 µg/mL
same,MIC,Pseudomonas aeruginosa [5],8 µg/mL
same,MIC,Pseudomonas aeruginosa [6],4 µg/mL
same,MIC,Acinetobacter baumannii [7],0.125 µg/mL
same,MIC,Acinetobacter baumannii [8],0.125 µg/mL
same,IC50 at 72 h,[9],> 500 µg/mL
CC(C)CCCCC(=O)N[C@@H](CCN)C(=O)N[C@H](C(=O)N[C@H](CO)C(=O)N[C@H]1CCNC(=O)[C@H]([C@@H](C)O)NC(=O)[C@H](CCN)NC(=O)[C@H](CCN)NC(=O)[C@H]([C@@H](C)O)NC(=O)[C@@H](Cc2ccccc2)NC(=O)[C@H](CN)NC1=O)[C@@H](C)O ({Heptanoyl(6-Me)}-[Dab]T[dS][Dab][Dap][dF]T[Dab][Dab]T; lactam 4-C),MIC,Escherichia coli [1],0.06 µg/mL
same,MIC,Escherichia coli [2],0.06 µg/mL
same,MIC,Klebsiella pneumoniae [3],0.06 µg/mL
same,MIC,Klebsiella pneumoniae [4],0.25 µg/mL
same,MIC,Pseudomonas aeruginosa [5],64 µg/mL
same,MIC,Pseudomonas aeruginosa [6],> 64 µg/mL
same,MIC,Acinetobacter baumannii [7],0.25 µg/mL
same,MIC,Acinetobacter baumannii [8],0.25 µg/mL
same,IC50 at 72 h,[9],> 500 µg/mL
CC(C)CCCCC(=O)N[C@@H](CCN)C(=O)N[C@H](C(=O)N[C@H](CO)C(=O)N[C@H]1CCNC(=O)[C@H]([C@@H](C)O)NC(=O)[C@H](CCN)NC(=O)[C@H](CCN)NC(=O)[C@H]([C@@H](C)O)NC(=O)[C@@H](Cc2ccccc2)NC(=O)[C@H](CCCN)NC1=O)[C@@H](C)O ({Heptanoyl(6-Me)}-[Dab]T[dS][Dab][Orn][dF]T[Dab][Dab]T; lactam 4-C),MIC,Escherichia coli [1],8 µg/mL
same,MIC,Escherichia coli [2],4 µg/mL
same,MIC,Klebsiella pneumoniae [3],64 µg/mL
same,MIC,Klebsiella pneumoniae [4],8 µg/mL
same,MIC,Pseudomonas aeruginosa [5],> 64 µg/mL
same,MIC,Pseudomonas aeruginosa [6],> 64 µg/mL
same,MIC,Acinetobacter baumannii [7],> 64 µg/mL
same,MIC,Acinetobacter baumannii [8],64 µg/mL
same,IC50 at 72 h,[9],> 500 µg/mL
CC(C)CCCCC(=O)N[C@@H](CN)C(=O)N[C@H](C(=O)N[C@H](CO)C(=O)N[C@H]1CCNC(=O)[C@H]([C@@H](C)O)NC(=O)[C@H](CCN)NC(=O)[C@H](CCN)NC(=O)[C@H]([C@@H](C)O)NC(=O)[C@@H](Cc2ccccc2)NC(=O)[C@H](CCN)NC1=O)[C@@H](C)O ({Heptanoyl(6-Me)}-[Dap]T[dS][Dab][Dab][dF]T[Dab][Dab]T; lactam 4-C),MIC,Escherichia coli [1],≤ 0.03 µg/mL
same,MIC,Escherichia coli [2],≤ 0.03 µg/mL
same,MIC,Klebsiella pneumoniae [3],0.5 µg/mL
same,MIC,Klebsiella pneumoniae [4],0.25 µg/mL
same,MIC,Pseudomonas aeruginosa [5],4 µg/mL
same,MIC,Pseudomonas aeruginosa [6],64 µg/mL
same,MIC,Acinetobacter baumannii [7],0.25 µg/mL
same,MIC,Acinetobacter baumannii [8],0.25 µg/mL
same,IC50 at 72 h,[9],> 500 µg/mL
CC(C)CCCCC(=O)N[C@@H](CCCN)C(=O)N[C@H](C(=O)N[C@H](CO)C(=O)N[C@H]1CCNC(=O)[C@H]([C@@H](C)O)NC(=O)[C@H](CCN)NC(=O)[C@H](CCN)NC(=O)[C@H]([C@@H](C)O)NC(=O)[C@@H](Cc2ccccc2)NC(=O)[C@H](CCN)NC1=O)[C@@H](C)O ({Heptanoyl(6-Me)}-[Orn]T[dS][Dab][Dab][dF]T[Dab][Dab]T; lactam 4-C),MIC,Escherichia coli [1],0.25 µg/mL
same,MIC,Escherichia coli [2],0.25 µg/mL
same,MIC,Klebsiella pneumoniae [3],0.5 µg/mL
same,MIC,Klebsiella pneumoniae [4],0.5 µg/mL
same,MIC,Pseudomonas aeruginosa [5],64 µg/mL
same,MIC,Pseudomonas aeruginosa [6],> 64 µg/mL
same,MIC,Acinetobacter baumannii [7],4 µg/mL
same,MIC,Acinetobacter baumannii [8],4 µg/mL
same,IC50 at 72 h,[9],> 500 µg/mL
